The values that follow come from ChEMBL document CHEMBL3864165, “Design, synthesis, and AChE inhibitory activity of new benzothiazole-piperazines” (Bioorg Med Chem Lett, 2016).

Data set [1] deals with Acetylcholinesterase (Electrophorus electricus) (UniProt O42275). Nature of the data set: Inhibition of electric eel AChE at 10^-6 M preincubated for 15 mins followed by acetylthiocholine iodide substrate addition measured for 5 mins by Ellman's spectrophotometric method relative to control. Background: Ellman's reagent forms a yellow product with free thiols.
Chain of Acetylcholinesterase (Electrophorus electricus) (O42275 24-633 limits assumed): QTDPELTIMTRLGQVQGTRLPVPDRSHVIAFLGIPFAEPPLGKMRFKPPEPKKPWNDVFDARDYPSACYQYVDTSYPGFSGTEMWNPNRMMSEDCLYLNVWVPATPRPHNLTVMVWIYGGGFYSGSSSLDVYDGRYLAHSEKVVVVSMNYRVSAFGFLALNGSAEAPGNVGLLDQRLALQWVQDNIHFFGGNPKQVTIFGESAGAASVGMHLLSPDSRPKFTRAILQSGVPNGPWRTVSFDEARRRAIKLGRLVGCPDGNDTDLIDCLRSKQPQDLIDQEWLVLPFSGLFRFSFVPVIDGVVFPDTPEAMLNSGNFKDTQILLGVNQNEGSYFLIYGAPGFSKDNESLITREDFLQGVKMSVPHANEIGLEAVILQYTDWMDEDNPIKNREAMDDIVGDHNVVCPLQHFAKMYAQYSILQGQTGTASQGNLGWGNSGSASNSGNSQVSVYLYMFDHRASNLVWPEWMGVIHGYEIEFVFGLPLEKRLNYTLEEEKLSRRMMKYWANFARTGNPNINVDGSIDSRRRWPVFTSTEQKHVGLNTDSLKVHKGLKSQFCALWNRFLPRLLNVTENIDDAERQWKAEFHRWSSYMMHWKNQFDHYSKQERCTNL
The target of the next data set is Acetylcholinesterase (Electrophorus electricus, UniProt O42275). Briefly: Inhibition of electric eel AChE preincubated for 15 mins followed by acetylthiocholine iodide substrate addition measured for 5 mins by Ellman's spectrophotometric method.
Chain of Acetylcholinesterase (O42275 whole entry): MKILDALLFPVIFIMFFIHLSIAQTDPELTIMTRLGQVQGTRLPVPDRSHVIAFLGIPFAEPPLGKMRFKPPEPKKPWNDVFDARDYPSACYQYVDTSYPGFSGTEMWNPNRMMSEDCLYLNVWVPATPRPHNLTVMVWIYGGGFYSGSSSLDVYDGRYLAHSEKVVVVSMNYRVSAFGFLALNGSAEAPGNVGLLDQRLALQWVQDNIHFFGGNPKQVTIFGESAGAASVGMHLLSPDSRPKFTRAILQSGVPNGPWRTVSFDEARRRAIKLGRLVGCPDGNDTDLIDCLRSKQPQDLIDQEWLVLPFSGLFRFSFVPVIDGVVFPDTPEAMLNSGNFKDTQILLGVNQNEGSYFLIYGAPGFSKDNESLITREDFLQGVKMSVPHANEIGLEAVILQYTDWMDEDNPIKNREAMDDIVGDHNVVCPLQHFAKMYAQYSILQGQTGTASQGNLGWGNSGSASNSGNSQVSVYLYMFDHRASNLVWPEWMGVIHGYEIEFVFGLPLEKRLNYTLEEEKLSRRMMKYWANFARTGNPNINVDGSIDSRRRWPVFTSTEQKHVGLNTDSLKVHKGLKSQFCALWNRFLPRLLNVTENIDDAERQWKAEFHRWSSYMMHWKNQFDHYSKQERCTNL
Data set [2] is described as follows: Cytotoxicity against mouse NIH/3T3 cells after 24 hrs by MTT assay. The settings on record: nih3t3. (Tetrazolium assays rely on reduction of a dye to a coloured formazan, in cell work by metabolically active cells.)

One may read the inhibition as the drop in the measured response relative to a control, in per cent. Low readings indicate a response near the control, high ones a response far below the control. Usually IC50 stands for the concentration needed to halve the response being measured. Higher therefore signals a need for much substance. As to `COc1cc2nc(NC(=O)CN3CCN(Cc4ccc(C)cc4)CC3)sc2cc1OC`, the inhibition in data set [1] was > 50%. Moreover, it took 215 nM to reach half-maximal inhibition on Acetylcholinesterase (IC50).
For `COc1ccc2nc(NC(=O)CN3CCN(Cc4ccc(C(F)(F)F)cc4)CC3)sc2c1`, in that order: > 50% and 274 nM.
The corresponding values for `COc1ccc2nc(NC(=O)CN3CCN(Cc4ccc(F)cc4)CC3)sc2c1` are > 50% and 244 nM.
For `COc1cc2nc(NC(=O)CN3CCN(Cc4ccc(F)cc4)CC3)sc2cc1OC`, in that order: > 50% and 175 nM.
For the compound `COc1ccc(CN2CCN(CC(=O)Nc3nc4ccc(OC)cc4s3)CC2)cc1`, the inhibition in data set [1] was > 50%. For the same compound, at Acetylcholinesterase, 396 nM corresponded to half-maximal inhibition (IC50).
For `COc1cc2c(cc1OC)C(=O)C(CC1CCN(Cc3ccccc3)CC1)C2` (stereo not drawn) [DONEPEZIL], the concentration for half-maximal inhibition (IC50) at 24 h in data set [2] turned out to be 316 µM.
`COc1cc2nc(NC(=O)CN3CCN(Cc4ccc(C(F)(F)F)cc4)CC3)sc2cc1OC`: the inhibition in data set [1] is > 50%. The IC50 at Acetylcholinesterase was determined as 198 nM.
